Experimental data published in PMC6364417, “Kinase inhibitor library screening identifies synergistic drug combinations effective in sensitive and resistant melanoma cells” (Journal of Experimental & Clinical Cancer Research : CR, 2019).

Legend:
Assay in all cases: Kinase inhibitor library screening, PrestoBlue cell viability, 1 or 10 μM, 72 h
501Mel cells (parental) = settings: 72 h
In short: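 Cells are treated with each inhibitor at 1 or 10 μM, incubated 72 h, then PrestoBlue reagent is added and the plate is read. Data are normalised to untreated cells.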

[1] = test system: 501Mel-XP cells (Vemurafenib-resistant); settings: 72 h
[2] = test system: A375-XP cells (Vemurafenib-resistant)
[3] = test system: IGR37-GP cells (Dabrafenib-resistant)
IGR37 cells (parental) = test system: IGR37 cells (parental)
[4] = test system: 501Mel-GP cells (Dabrafenib-resistant); settings: 72 h
[5] = test system: IGR37-XP cells (Vemurafenib-resistant)
[6] = test system: A375-GP cells (Dabrafenib-resistant)
A375 cells (parental) = test system: A375 cells (parental)

Compound	cell viability (kinase inhibitor library screening) (501Mel cells (parental); 501Mel Parental, 1μΜ)	cell viability (kinase inhibitor library screening) (501Mel cells (parental); 501Mel Parental, 10μΜ)	cell viability (kinase inhibitor library screening) ([1]; 501Mel XP, 1μΜ)	cell viability (kinase inhibitor library screening) ([1]; 501Mel XP, 10μΜ)	cell viability (kinase inhibitor library screening) ([2]; A375 XP, 1μΜ, 72 h)	cell viability (kinase inhibitor library screening) ([2]; A375 XP, 10μΜ, 72 h)	cell viability (kinase inhibitor library screening) ([3]; IGR37 GP, 1μΜ, 72 h)	cell viability (kinase inhibitor library screening) ([3]; IGR37 GP, 10μΜ, 72 h)	cell viability (kinase inhibitor library screening) (IGR37 cells (parental); IGR37 Parental, 1μΜ, 72 h)	cell viability (kinase inhibitor library screening) (IGR37 cells (parental); IGR37 Parental, 10μΜ, 72 h)	cell viability (kinase inhibitor library screening) ([4]; 501Mel GP, 1μΜ)	cell viability (kinase inhibitor library screening) ([4]; 501Mel GP, 10μΜ)	cell viability (kinase inhibitor library screening) ([5]; IGR37 XP, 1μΜ, 72 h)	cell viability (kinase inhibitor library screening) ([5]; IGR37 XP, 10μΜ, 72 h)	cell viability (kinase inhibitor library screening) ([6]; A375 GP, 1μΜ, 72 h)	cell viability (kinase inhibitor library screening) ([6]; A375 GP, 10μΜ, 72 h)	cell viability (kinase inhibitor library screening) (A375 cells (parental); A375 Parental, 10μΜ, 72 h)	cell viability (kinase inhibitor library screening) (A375 cells (parental); A375 Parental, 1μΜ, 72 h)	further results
Cc1ccc(F)c(NC(=O)Nc2ccc(-c3cccc4[nH]nc(N)c34)cc2)c1 [Linifanib (ABT-869)]	–	–	–	–	–	–	–	–	–	–	–	–	–	–	–	–	–	–	Cell viability in kinase inhibitor library screening, 501Mel Parental, 1μΜ (501Mel cells (parental); 501Mel Parental, 1μΜ, in %): 98.1; Cell viability in kinase inhibitor library screening, 501Mel XP, 10μΜ ([1]; 501Mel XP, 10μΜ, in %): 3.8; Cell viability in kinase inhibitor library screening, A375 XP, 1μΜ ([2]; A375 XP, 1μΜ, 72 h): 110.5; Cell viability in kinase inhibitor library screening, A375 XP, 10μΜ ([2]; A375 XP, 10μΜ, 72 h): 59.8; Cell viability in kinase inhibitor library screening, IGR37 GP, 10μΜ ([3]; IGR37 GP, 10μΜ, 72 h): 52.4%; Cell viability in kinase inhibitor library screening, IGR37 Parental, 1μΜ (IGR37 cells (parental); IGR37 Parental, 1μΜ, 72 h, in %): 99.9; Cell viability in kinase inhibitor library screening, IGR37 Parental, 10μΜ (IGR37 cells (parental); IGR37 Parental, 10μΜ, 72 h, in %): 60.3; Cell viability in kinase inhibitor library screening, 501Mel GP, 1μΜ ([4]; 501Mel GP, 1μΜ, in %): 106.7; Cell viability in kinase inhibitor library screening, 501Mel GP, 10μΜ ([4]; 501Mel GP, 10μΜ, in %): 11.3; Cell viability in kinase inhibitor library screening, IGR37 XP, 10μΜ ([5]; IGR37 XP, 10μΜ, 72 h): 30.7%; Cell viability in kinase inhibitor library screening, IGR37 XP, 1μΜ ([5]; IGR37 XP, 1μΜ, 72 h, in %): 102.6; Cell viability in kinase inhibitor library screening, A375 GP, 1μΜ ([6]; A375 GP, 1μΜ, 72 h): 102.6; Cell viability in kinase inhibitor library screening, A375 GP, 10μΜ ([6]; A375 GP, 10μΜ, 72 h): 38.3; Cell viability in kinase inhibitor library screening, A375 Parental, 10μΜ (A375 cells (parental); A375 Parental, 10μΜ, 72 h): 46.3; Cell viability in kinase inhibitor library screening, A375 Parental, 1μΜ (A375 cells (parental); A375 Parental, 1μΜ, 72 h): 106.9
C[C@]1(O)C[C@@H](c2nc(-c3ccc4ccc(-c5ccccc5)nc4c3)c3c(N)nccn32)C1 [Linsitinib (OSI-906)]	–	–	–	–	–	–	–	–	–	–	–	–	–	–	–	–	–	–	viability at 1 µM (501Mel cells (parental); Homo sapiens, read-out: cell viability, 501Mel Parental, 1μΜ): 70.7%; viability at 10 µM (501Mel cells (parental); Homo sapiens, read-out: cell viability, 501Mel Parental, 10μΜ): 45.5%; viability at 1 µM ([1]; Homo sapiens, read-out: cell viability, 501Mel XP, 1μΜ): 75.2%; viability at 10 µM ([1]; Homo sapiens, read-out: cell viability, 501Mel XP, 10μΜ): 32.6%; viability at 1 µM ([2]; Homo sapiens, A-375, 72 h, read-out: cell viability, A375 XP, 1μΜ): 77.2%; viability at 10 µM ([2]; Homo sapiens, A-375, 72 h, read-out: cell viability, A375 XP, 10μΜ): 44.6%; viability at 1 µM ([3]; Homo sapiens, IGR-37, 72 h, read-out: cell viability, IGR37 GP, 1μΜ): 81.6%; viability at 10 µM ([3]; Homo sapiens, IGR-37, 72 h, read-out: cell viability, IGR37 GP, 10μΜ): 25.5%; viability at 1 µM (IGR37 cells (parental); Homo sapiens, IGR-37, 72 h, read-out: cell viability, IGR37 Parental, 1μΜ): 107%; viability at 10 µM (IGR37 cells (parental); Homo sapiens, IGR-37, 72 h, read-out: cell viability, IGR37 Parental, 10μΜ): 67.7%; viability at 1 µM ([4]; Homo sapiens, read-out: cell viability, 501Mel GP, 1μΜ): 83.6%; viability at 10 µM ([4]; Homo sapiens, read-out: cell viability, 501Mel GP, 10μΜ): 54.2%; viability at 1 µM ([5]; Homo sapiens, IGR-37, 72 h, read-out: cell viability, IGR37 XP, 1μΜ): 66.7%; viability at 10 µM ([5]; Homo sapiens, IGR-37, 72 h, read-out: cell viability, IGR37 XP, 10μΜ): 6.7%; viability at 1 µM ([6]; Homo sapiens, A-375, 72 h, read-out: cell viability, A375 GP, 1μΜ): 67.1%; viability at 10 µM ([6]; Homo sapiens, A-375, 72 h, read-out: cell viability, A375 GP, 10μΜ): 34.4%; viability at 1 µM (A375 cells (parental); Homo sapiens, A-375, 72 h, read-out: cell viability, A375 Parental, 1μΜ): 84.1%; viability at 10 µM (A375 cells (parental); Homo sapiens, A-375, 72 h, read-out: cell viability, A375 Parental, 10μΜ): 42.3%
COCCNCc1ccc(-c2cc3nccc(Oc4ccc(NC(=S)NC(=O)Cc5ccc(F)cc5)cc4F)c3s2)nc1 [MGCD-265]	104.7%	94.4%	76.7%	64.2%	104.8%	98.2%	91.8%	78.3%	96.8%	92.1%	89.8%	68.8%	91.5%	50.3%	95.5%	85.6%	83.0%	–	–
CN(C[C@@H]1COCCO1)S(=O)(=O)Nc1ccc2ccc3ncc(-c4cnn(C)c4)cc3c(=O)c2c1 [MK-2461]	102.9%	83.3%	77.5%	30.0%	106.1%	88.4%	–	28.3%	103.2%	84.5%	90.6%	45.5%	99.3%	6.5%	–	78.6%	78.1%	106.3%	–
O=C(O)[C@]1(Cc2cccc(Nc3nccs3)n2)CC[C@@H](Oc2cccc(Cl)c2F)CC1 [MK-5108 (VX-689)]	94.9%	74.6%	72.1%	52.0%	99.5%	68.2%	–	93.5%	98.6%	94.9%	83.4%	63.6%	100.4%	80.0%	92.6%	63.9%	56.1%	91.4%	–
O=C(O)c1ccc(Nc2ncc3c(n2)-c2ccc(Cl)cc2C(c2c(F)cccc2F)=NC3)cc1 [MLN8054]	86.3%	77.0%	74.5%	59.4%	75.7%	52.2%	94.0%	66.7%	98.2%	64.8%	86.0%	65.6%	94.1%	42.0%	70.2%	45.2%	41.6%	66.5%	–
COc1cc(Nc2ncc3c(n2)-c2ccc(Cl)cc2C(c2c(F)cccc2OC)=NC3)ccc1C(=O)O [MLN8237 (Alisertib)]	82.2%	73.9%	67.2%	49.0%	51.0%	50.5%	89.7%	56.0%	70.3%	54.5%	82.8%	52.7%	86.2%	31.0%	42.7%	41.7%	40.1%	43.3%	–
Cc1ccc(NC(=O)c2ccc(CN3CCN(C)CC3)cc2)cc1Nc1nc(-c2cccnc2)cs1 [Masitinib (AB1010)]	–	88.8%	94.5%	20.4%	105.3%	94.5%	–	77.4%	98.6%	92.0%	103.1%	85.2%	103.2%	49.1%	98.6%	85.2%	87.9%	–	–
